The text below walks through data of ChEMBL document CHEMBL1201862, “PubChem BioAssay data set” (2004).

Test systems include RXF 393; Hs-578T; SK-MEL-28; SNB-19; SF-539; U-251; NCI-H522; Malme-3M; SF-295; SNB-75; A549; A498; K562; UO-31; KM12; DU-145; OVCAR-3; SR; SW-620.
Common to all, as to assay: NCI anticancer screen, dose series, 48 h

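Growth conditions: 96-well plates. Treatment: test compound, 48 hours, 5 concentrations. Analysis: linear interpolation between bracketing concentrations; unreached endpoints set to highest concentration. At the GI50, growth is halved.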 Activity calls are given as the source filed them. Rule as the data show it: active = GI50 up to about 1.1 µM and inactive = higher.

On to `Cc1ccc(-c2cc(-c3cc(-c4ccc(C)cc4C)[nH]n3)[nH]n2)c(C)c1`, for which the GI50 in the experiment on RXF 393 is 14.4 µM (inactive); in the experiment on Hs-578T, 18.1 µM (inactive); in the experiment with SK-MEL-28, 13.7 µM (inactive); in the experiment on SNB-19 it was 18.5 µM (inactive); in the experiment with SF-539, 17 µM (inactive); in the experiment on U-251, 13.5 µM (inactive). Further, the GI50 was 13.9 µM (inactive) in the experiment with NCI-H522; 11.1 µM (inactive) in the experiment with Malme-3M; 13.1 µM (inactive) in the experiment on SF-295; 18.3 µM (inactive) in the experiment on SNB-75; 13.9 µM (inactive) in the experiment on A549; 16.6 µM (inactive) with A498. For the same molecule, the GI50 is 15.5 µM (inactive) in the experiment on K562; 23 µM (inactive) in the experiment with UO-31; 17.7 µM (inactive) in the experiment on KM12; 16.3 µM (inactive) in the experiment with DU-145; 12.2 µM (inactive) with OVCAR-3; 10.2 µM (inactive) with SR. Further, in the experiment on SW-620, the GI50 is 11.8 µM (inactive).
`CC(C)=CCC[C@@H](C)C1=C(N)C(=O)C(C)=C(O)C1=O`: the GI50 in the experiment on RXF 393 was > 75 µM (inactive); in the experiment on Hs-578T it was 34.9 µM (inactive); in the experiment with SK-MEL-28 it was > 75 µM (inactive); in the experiment with SNB-19, 60.7 µM (inactive); in the experiment with SF-539, 41.7 µM (inactive); in the experiment with U-251, 31.8 µM (inactive). Also, the GI50 is 25.8 µM (inactive) in the experiment on NCI-H522; 56.9 µM (inactive) in the experiment on Malme-3M; 32.1 µM (inactive) in the experiment on SF-295; 40.6 µM (inactive) with SNB-75; 32.6 µM (inactive) in the experiment with A549; 29.9 µM (inactive) with A498. Moreover, the GI50 with K562 is 35.7 µM (inactive); with UO-31 it was 36 µM (inactive); in the experiment on KM12 it was 32.7 µM (inactive); in the experiment with DU-145 it was > 75 µM (inactive); in the experiment with OVCAR-3 it was 33 µM (inactive); with SR, 26.3 µM (inactive). Besides, the GI50 with SW-620 was 41.3 µM (inactive).
As to `OCCc1ccsc1-c1sc(-c2cc(CCO)c(-c3sc(-c4cc(CCO)c(-c5sccc5CCO)s4)cc3CCO)s2)cc1CCO`, the GI50 was 0.454 µM (active) in the experiment with RXF 393; 3.13 µM (inactive) in the experiment on Hs-578T; 1.55 µM (inactive) in the experiment on SK-MEL-28; 1.7 µM (inactive) in the experiment with SNB-19; 1.44 µM (inactive) in the experiment with SF-539; 0.957 µM (active) in the experiment with U-251. Further, the GI50 was 0.807 µM (active) in the experiment with NCI-H522; 1.14 µM (inactive) with Malme-3M; 1.29 µM (inactive) in the experiment with SF-295; 1.27 µM (inactive) in the experiment with SNB-75; 0.656 µM (active) in the experiment on A549; 2 µM (inactive) in the experiment on A498. Also, the GI50 is 1.14 µM (inactive) in the experiment with K562; 1.29 µM (inactive) in the experiment with UO-31; 0.621 µM (active) with KM12; 1.34 µM (inactive) in the experiment on DU-145; 1.38 µM (inactive) with OVCAR-3; 0.684 µM (active) in the experiment on SR. Also, the GI50 in the experiment with SW-620 was 1.31 µM (inactive).
Take `Cc1cn(CCC(N)C(=O)O)c(=O)[nH]c1=O` (stereo not given): the GI50 with RXF 393, in the experiment with Hs-578T, in the experiment with SK-MEL-28, in the experiment on SNB-19, with SF-539 and in the experiment on U-251 was > 100 µM (inactive) each time. The GI50 in the experiment on NCI-H522, with Malme-3M, in the experiment with SF-295, in the experiment on SNB-75, with A549 and in the experiment on A498 was > 100 µM (inactive) each time. In addition, the GI50 in the experiment on K562, in the experiment with UO-31, with KM12, in the experiment on DU-145, in the experiment with OVCAR-3 and with SR was > 100 µM (inactive) each time. For the same molecule, the GI50 with SW-620 is > 100 µM (inactive).
In the case of `O=c1[nH]nc(Cc2ccccc2)[nH]1`, the GI50 in the experiment on RXF 393, in the experiment with Hs-578T, with SK-MEL-28, in the experiment on SNB-19, in the experiment with SF-539 and in the experiment on U-251 was > 100 µM (inactive) each time. The GI50 in the experiment with NCI-H522, in the experiment on Malme-3M, in the experiment with SF-295, with SNB-75, with A549 and in the experiment on A498 was > 100 µM (inactive) each time. For the same molecule, the GI50 in the experiment on K562 was > 100 µM (inactive); in the experiment with UO-31, > 100 µM (inactive); in the experiment on KM12, > 100 µM (inactive); in the experiment with DU-145, > 100 µM (inactive); in the experiment on OVCAR-3 it was > 100 µM (inactive); in the experiment on SR, 44.6 µM (inactive). In addition, the GI50 with SW-620 was > 100 µM (inactive).
Regarding `Cc1noc2nnn(-c3ccc(Cl)cc3)c(=O)c12`, the GI50 in the experiment with RXF 393 is 0.879 µM (active); with Hs-578T, 18.6 µM (inactive); in the experiment with SK-MEL-28, 10.8 µM (inactive); with SNB-19 it was 13.3 µM (inactive); in the experiment on SF-539 it was 0.223 µM (active); in the experiment on U-251, 4.92 µM (inactive). In addition, the GI50 in the experiment on NCI-H522 was 0.5 µM (active); with Malme-3M, 11.9 µM (inactive); in the experiment with SF-295, 12.3 µM (inactive); in the experiment with SNB-75, 1.1 µM (active); in the experiment on A549 it was 12.1 µM (inactive); in the experiment with A498, 13.5 µM (inactive). Also, the GI50 is 1.3 µM (inactive) in the experiment with K562; 3.61 µM (inactive) in the experiment on UO-31; 11.7 µM (inactive) in the experiment with KM12; 3.72 µM (inactive) with DU-145; 2.36 µM (inactive) in the experiment with OVCAR-3; 1.21 µM (inactive) in the experiment with SR. Also, in the experiment with SW-620, the GI50 is 0.67 µM (active).
For the molecule `Cc1ccccc1C1CC(=O)CC(c2ccccc2C)C12C(=O)NC(=O)NC2=O` (stereo not given), the GI50 in the experiment on RXF 393 was > 100 µM (inactive); in the experiment with Hs-578T, > 100 µM (inactive); with SK-MEL-28, > 100 µM (inactive); in the experiment on SNB-19 it was > 100 µM (inactive); with SF-539 it was > 32.4 µM (inactive); in the experiment with U-251, > 100 µM (inactive). The GI50 with NCI-H522 was > 75.3 µM (inactive); in the experiment on Malme-3M it was > 100 µM (inactive); in the experiment with SF-295, > 100 µM (inactive); in the experiment with SNB-75 it was > 100 µM (inactive); with A549 it was > 100 µM (inactive); with A498 it was > 100 µM (inactive). Further, the GI50 in the experiment on K562, in the experiment on UO-31, in the experiment on KM12, with DU-145, with OVCAR-3 and in the experiment with SR was > 100 µM (inactive) throughout. Besides, the GI50 with SW-620 is > 100 µM (inactive).
Turning to `Nc1ccc2nc3n(c2c1)C(c1c(F)cccc1F)SC3` (stereo not given), the GI50 with RXF 393, with Hs-578T, with SK-MEL-28, in the experiment on SNB-19, in the experiment on SF-539 and with U-251 was > 100 µM (inactive) in each case. Further, the GI50 in the experiment on NCI-H522 was > 100 µM (inactive); in the experiment on Malme-3M it was > 100 µM (inactive); with SF-295, 98.9 µM (inactive); in the experiment on SNB-75, 80.4 µM (inactive); in the experiment on A549, > 100 µM (inactive); with A498, > 100 µM (inactive). Also, the GI50 with K562 was 85.5 µM (inactive); in the experiment with UO-31, 72.6 µM (inactive); with KM12 it was > 100 µM (inactive); with DU-145 it was > 100 µM (inactive); with OVCAR-3, > 100 µM (inactive); in the experiment with SR it was > 100 µM (inactive). For the same molecule, in the experiment with SW-620, the GI50 was > 100 µM (inactive).
As to `CC1(COS(=O)(=O)OCC2(C)COS(=O)(=O)OC2)COS(=O)(=O)OC1`, the GI50 with RXF 393 was > 64.7 µM (inactive); in the experiment on Hs-578T, > 100 µM (inactive); with SK-MEL-28, > 100 µM (inactive); with SNB-19 it was > 60.7 µM (inactive); in the experiment on SF-539, > 100 µM (inactive); in the experiment on U-251 it was > 38.1 µM (inactive). For the same molecule, the GI50 in the experiment with NCI-H522 is > 61.1 µM (inactive); in the experiment with Malme-3M it was > 83 µM (inactive); in the experiment with SF-295, > 100 µM (inactive); in the experiment with SNB-75 it was > 100 µM (inactive); with A549, > 28.8 µM (inactive); in the experiment on A498, > 45.8 µM (inactive). Moreover, the GI50 was > 26.2 µM (inactive) in the experiment on K562; > 41.2 µM (inactive) with UO-31; > 32.7 µM (inactive) in the experiment on KM12; > 36.5 µM (inactive) in the experiment with DU-145; > 100 µM (inactive) in the experiment on OVCAR-3; > 24.9 µM (inactive) in the experiment on SR. Further, the GI50 in the experiment on SW-620 is > 55.2 µM (inactive).
In the case of `Cc1c(-c2ccccc2)c(C#N)c2nnn(-c3ccccc3)c(=O)n12`, the GI50 is 81.7 µM (inactive) in the experiment on RXF 393; > 100 µM (inactive) with Hs-578T; > 100 µM (inactive) with SK-MEL-28; > 100 µM (inactive) with SNB-19; > 100 µM (inactive) in the experiment with SF-539; 48.8 µM (inactive) in the experiment on U-251. Besides, the GI50 was 44.9 µM (inactive) with NCI-H522; 97.9 µM (inactive) in the experiment on Malme-3M; 43.7 µM (inactive) with SF-295; > 100 µM (inactive) in the experiment on SNB-75; 97.9 µM (inactive) in the experiment on A549; 65.8 µM (inactive) with A498. The GI50 in the experiment on K562 was 40.6 µM (inactive); with UO-31, > 100 µM (inactive); in the experiment with KM12, 75.7 µM (inactive); in the experiment with DU-145, > 100 µM (inactive); in the experiment on OVCAR-3 it was 85.1 µM (inactive); with SR, 33.8 µM (inactive). The GI50 in the experiment with SW-620 was > 100 µM (inactive).
